Counter-ions that a name gives are not always drawn.
How the values were obtained:
[1] = target: T1, human NCX1 (Homo sapiens, UniProt P32418); assay: NCX1 inhibition, reverse mode (Ca2+ influx into cells), FLIPR Fluo-4 assay; format: cell-based; conditions: inhibition of NCX1 in reverse mode (Ca2+ influx into cells); read-out: NCX1rv IC50
T1 construct: expressed in transfected cells
Method in brief: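 CHO cells stably expressing human NCX1 were loaded with 2 µM Fluo-4 AM for 80 min at room temperature, then preincubated with compound for 45 min at 16 °C in pH 7.4 HEPES buffer (3.5 mM CaCl2, 2.5 mM probenecid). Reverse-mode Ca2+ influx was triggered by 20 µM final gramicidin and read at 520 nm on FLIPR. IC50 came from % inhibition of max−min fluorescence.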

[2] = target: T1, human NCX1; assay: NCX1 inhibition, forward mode (Ca2+ efflux out of cells), FLIPR calcium assay; format: cell-based; conditions: CHO cells stably expressing human NCX1, read-out: NCX1fw IC50
Description: The sodium/calcium exchanger NCX1 can transport calcium ions and sodium ions through the cell membrane. The transport is an exchange of Ca^2+ and Na^+ in two directions depending on membrane potential and ion gradients. At the first direction, named “forward mode” or “calcium export mode”, Ca^2+ is transported out of the cell and Na^+ is transported into the cell. At the other direction, named “reverse mode” or “calcium import mode”, the transport directions are vice versa. The effect of the compounds of the invention on NCX1 was determined in CHO cells stably expressing human NCX1 (gene symbol SLC8A1; cf. WO 2009/115238). The assay is based on the monitoring of intracellular Ca^2+ concentrations using a calcium-sensitive fluorescence dye which is detected by means of a FLIPR device (Fluorimetric Imaging Plate Reader, Molecular Devices).
The assay is based on the monitoring of intracellular Ca^2+ concentrations using the PBX Calcium Assay Kit from BD (Becton, Dickinson and Company) with calcium indicator dye 51-9000177BKa (BD, 640177). CHO cells expressing NCX1 were loaded with the dye, and after a preincubation period with the test compound, Ionomycin (Calbiochem, 407950) was added. Ionomycin is an ionophor for Ca^2+ ions mediating an increase of intracellular Ca^2+ ions. Consequently, intracellular Ca^2+ ions are exchanged against extracellular Na^+ ions (Ca^2+ efflux, forward mode). The decrease of intracellular Ca^2+ ions was detected by measuring the fluorescence of the calcium indicator dye at a wavelength of 520 nm by a FLIPR device.
Briefly, similarly as for the reverse mode, for the forward mode transport assay 18000 cells per well were seeded into a 96 well microplate (Corning COSTAR 3904) and incubated overnight in culture medium (cf. above). A total volume of 100 μl medium per well was used. For the preparation of the FLIPR assay, the culture medium was removed from the plates and 100 μl of assay buffer (133.8 mM NaCl (Sigma, S5886); 4.7 mM KCl (Sigma, P3911); 1.25 mM MgCl2 (Merck, 1.05833.0250); 3.5 mM CaCl2(Merck, 1.02083.0250); 5 mM glucose (Sigma, G7021); 10 mM Hepes (Sigma, H4034); pH 7.4)) were added to each well in a washing step. Assay buffer was removed, and 100 μl of a solution of the test compound in assay buffer in different concentrations were added into the wells. Further, 100 μl of dye solution (0.09% (v/v) calcium indicator dye, 9.1% (v/v) signal enhancer (from PBX Calcium Assay Kit); in assay buffer) were added into each well. The plates were incubated in the dark at room temperature for 60 min. Meanwhile a 10 μM solution of Ionomycin in assay buffer (additionally containing 0.05% fetal calf serum (cf. above); 4° C.) was prepared and stored in the wells of a 96 well microplate (96 well microplate, polypropylene, U-shape (Greiner Bio-One, 650201)). The fluorescence monitoring was performed at 60 measuring points with measurement intervals of 2 sec. After the fifth measuring point, 50 μl of the Ionomycin solution were added to each well of the assay plate to give a final Ionomycin concentration of 2 μM. For the determination of the IC50 values the minimal fluorescence value was subtracted from the maximal fluorescence value for the fifteenth to fifty-fifth measuring points. The calculation of the IC50 values via the percentage inhibitions of Ca^2+ efflux out of cells (forward mode) effected by the test compound was performed in Biost@t Speed 2.0. “NCX1fw IC50” in Table 2 means the IC50 value for inhibition of NCX1 in forward mode (in μM (micromol/liter)).

[3] = system: Sprague-Dawley rats; assay: In vivo method for determining the effect on heart contractility (left ventricular dp/dtmax); conditions: Rattus norvegicus, iv, read-out: Contractility increase (%)
Method: Adult male Sprague-Dawley rats (Harlan Winkelmann, Borchen, Germany) weighing 340 to 370 g were anesthetized with pentobarbital (100 mg/kg i.p.) and ventilated with a mixture of oxygen (40%) and room air (60%) at a tidal volume of 1 ml/100 g at 60 breaths/min. Body temperature was maintained at 36.5±0.3° C. with a heating lamp and was monitored with a rectal thermo sensor. Systemic blood pressure was measured in the left carotid artery using a pressure transducer (Combitrans; B. Braun Melsungen AG, Melsungen, Germany) connected to a DC-bridge-amplifier (PLUGSYS/ADC Type 663; Harvard Apparatus GmbH, March-Hugstetten, Germany). The electrocardiogram was measured as lead II via subcutaneously placed electrodes connected to a Heart-Rate-Module ([…] Type 669; Harvard Apparatus GmbH, March-Hugstetten, Germany). A micro-tip catheter (2 French, SPR-320; Millar Instruments, Houston, Tex., USA) was placed via the right carotid artery into the left ventricle, and the left ventricular pressure (LVP) and the enddiastolic pressure (EDP) were continuously measured. Registration of the hemodynamic data was performed via an analog digital converter by a personal computer using Notocord software (HEM version 3.5). Left ventricular contractility (dp/dtmax) and relaxation (dp/dtmin) were calculated from the LVP signal. For intravenous administration of the test compounds, the left jugular vein was prepared and a PP-50 catheter was inserted. Test compounds were administered either by intravenous bolus injection or by intravenous infusion by means of an infusion pump (Unita; B. Braun Melsungen AG, Melsungen, Germany). […] In a typical experiment, several dosages of the test compound were administered subsequently at increasing doses. Statistical significance of the data obtained with drug vs. control experiments, in which solvent was administered, was evaluated with the 2-sided ANOVA test (program Everstat). Increases in left ventricular contractility (percent increase) by example compounds are given in Table 3 in comparison to control experiments in which solvent was administered.

`Cc1ccccc1[C@@H]1CCc2cc(Oc3ncc(C(=O)NCCOP(=O)(O)O)s3)ccc2O1` [Example 345, Phosphoric acid mono-(2-{[2-((S)-2-o-tolyl-chroman-6-yloxy)-thiazole-5-carbonyl]-amino}-ethyl) ester disodium salt] was tested, and the IC50 [1] was 70 nM, the IC50 [2] was 3 µM and the change in vivo at 0.03 mg/kg/min [3] was 32%. For the same compound, the change in vivo at 0.1 mg/kg/min [3] was 85%.

— US20140243292A1, “SUBSITUTED 2-(CHROMAN-6-YLOXYL)-THIAZOLES AND THEIR USE AS PHARMACEUTICALS” (Sanofi, priority 2011, published 2014)
